In PMC11792831, “Design and synthesis of doublecortin-like kinase 1 inhibitors and their bioactivity evaluation” (Journal of Enzyme Inhibition and Medicinal Chemistry, 2023):
Read-outs that look alike come from different tables or passages of the source.

Tests used:
LRRK2 = target: T1, LRRK2 (Homo sapiens, UniProt Q5S007); assay: In vitro LRRK2 kinase activity assay (Eurofins); format: biochemical; conditions: for activity at 1 µM / LRRK2 activity (%): remaining kinase activity at 1 uM compound, 100% = no inhibition, 0% = complete inhibition
T1 construct: purchased Eurofins (Belgium), contract assay service
Protocol: All compounds were tested for their kinase inhibitory activity at the concentration of 1 μM. […] Compounds with high activity or good selectivity were selected for further IC50 determination (Table 2).
(§1) Eurofins (Belgium) conducted in vitro DCLK1 and LRRK2 kinase activity assays. Compounds were sent as dry powders to Eurofins.

DCLK1 = target: T2, DCLK1 (Homo sapiens, UniProt O15075); assay: In vitro DCLK1 kinase activity assay (Eurofins); format: biochemical; conditions: for Selectivity (DCLK1 activity/LRRK2 activity): ratio of remaining activities at 1 uM; for activity at 1 µM: read-out: DCLK1 activity (%)
T2 construct: purchased Eurofins (Belgium), contract assay service
T2 sequence (O15075 1-740): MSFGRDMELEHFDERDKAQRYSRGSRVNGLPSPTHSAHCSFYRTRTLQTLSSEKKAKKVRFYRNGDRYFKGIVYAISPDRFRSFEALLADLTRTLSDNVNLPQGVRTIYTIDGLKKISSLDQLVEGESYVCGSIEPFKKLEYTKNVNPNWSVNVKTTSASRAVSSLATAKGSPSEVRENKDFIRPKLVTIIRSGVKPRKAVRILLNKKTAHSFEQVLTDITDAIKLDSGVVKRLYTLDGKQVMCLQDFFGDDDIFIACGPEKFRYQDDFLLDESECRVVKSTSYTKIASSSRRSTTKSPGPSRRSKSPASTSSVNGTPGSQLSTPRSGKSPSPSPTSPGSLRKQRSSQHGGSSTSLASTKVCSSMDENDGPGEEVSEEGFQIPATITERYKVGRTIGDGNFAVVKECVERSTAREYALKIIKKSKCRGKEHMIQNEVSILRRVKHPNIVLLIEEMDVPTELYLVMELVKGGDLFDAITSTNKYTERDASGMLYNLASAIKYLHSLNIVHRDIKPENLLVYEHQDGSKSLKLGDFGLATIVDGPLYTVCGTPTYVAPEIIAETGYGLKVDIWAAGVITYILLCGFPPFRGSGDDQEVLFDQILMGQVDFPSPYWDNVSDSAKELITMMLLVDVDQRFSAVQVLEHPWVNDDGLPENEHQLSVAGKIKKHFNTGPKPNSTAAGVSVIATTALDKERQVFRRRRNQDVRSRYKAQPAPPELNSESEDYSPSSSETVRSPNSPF
Source text: as §1

HCT116 = assay: In vitro cytotoxicity / anti-proliferation assay (CCK8); format: cell-based; conditions: Homo sapiens, HCT-116, colorectal cancer cell line HCT116, 72 h
Protocol: To determine whether DCLK1 was required for tumour cell proliferation, the cytotoxicity of compounds was evaluated in colorectal cancer cell line HCT116. HCT116 was treated with compounds for 72 h, and the cell viability was determined using CCK8 assay (Figure 4). The antiproliferative effects of most compounds on HCT116 were correlated with their DCLK1 inhibitory activities, except for compounds D1 and D2. The poor cytotoxicity of compounds D1 and D2 may be attributed to their poor cell membrane permeability due to the negatively charged carboxylates. […] Overall, targeting DCLK1 inhibited the proliferation of HCT116, indicating the importance of DCLK1 in tumour growth.
A 96-well plate (3599, Corning, USA) was inoculated with 100 μL of complete medium containing 10 000 cells, and the experimental, control, and blank groups were established. Three parallel wells were used per concentration. After 10 h, media from the experimental and control groups were replaced with a complete medium containing the indicated concentration of the compound. Cells were incubated for 72 h before 10 μL of CCK8 reagent (CA1210, Solarbio, China) was added to each well and incubated for 1 h. The absorbance at 450 nm was measured with a microplate reader (Tecan, Switzerland). The IC50 was determined using GraphPad Prism 8 and nonlinear regression curve fitting.

[1] = remaining kinase activity at 1 uM compound, 100% = no inhibition, 0% = complete inhibition

T1 sequence (Q5S007 whole entry): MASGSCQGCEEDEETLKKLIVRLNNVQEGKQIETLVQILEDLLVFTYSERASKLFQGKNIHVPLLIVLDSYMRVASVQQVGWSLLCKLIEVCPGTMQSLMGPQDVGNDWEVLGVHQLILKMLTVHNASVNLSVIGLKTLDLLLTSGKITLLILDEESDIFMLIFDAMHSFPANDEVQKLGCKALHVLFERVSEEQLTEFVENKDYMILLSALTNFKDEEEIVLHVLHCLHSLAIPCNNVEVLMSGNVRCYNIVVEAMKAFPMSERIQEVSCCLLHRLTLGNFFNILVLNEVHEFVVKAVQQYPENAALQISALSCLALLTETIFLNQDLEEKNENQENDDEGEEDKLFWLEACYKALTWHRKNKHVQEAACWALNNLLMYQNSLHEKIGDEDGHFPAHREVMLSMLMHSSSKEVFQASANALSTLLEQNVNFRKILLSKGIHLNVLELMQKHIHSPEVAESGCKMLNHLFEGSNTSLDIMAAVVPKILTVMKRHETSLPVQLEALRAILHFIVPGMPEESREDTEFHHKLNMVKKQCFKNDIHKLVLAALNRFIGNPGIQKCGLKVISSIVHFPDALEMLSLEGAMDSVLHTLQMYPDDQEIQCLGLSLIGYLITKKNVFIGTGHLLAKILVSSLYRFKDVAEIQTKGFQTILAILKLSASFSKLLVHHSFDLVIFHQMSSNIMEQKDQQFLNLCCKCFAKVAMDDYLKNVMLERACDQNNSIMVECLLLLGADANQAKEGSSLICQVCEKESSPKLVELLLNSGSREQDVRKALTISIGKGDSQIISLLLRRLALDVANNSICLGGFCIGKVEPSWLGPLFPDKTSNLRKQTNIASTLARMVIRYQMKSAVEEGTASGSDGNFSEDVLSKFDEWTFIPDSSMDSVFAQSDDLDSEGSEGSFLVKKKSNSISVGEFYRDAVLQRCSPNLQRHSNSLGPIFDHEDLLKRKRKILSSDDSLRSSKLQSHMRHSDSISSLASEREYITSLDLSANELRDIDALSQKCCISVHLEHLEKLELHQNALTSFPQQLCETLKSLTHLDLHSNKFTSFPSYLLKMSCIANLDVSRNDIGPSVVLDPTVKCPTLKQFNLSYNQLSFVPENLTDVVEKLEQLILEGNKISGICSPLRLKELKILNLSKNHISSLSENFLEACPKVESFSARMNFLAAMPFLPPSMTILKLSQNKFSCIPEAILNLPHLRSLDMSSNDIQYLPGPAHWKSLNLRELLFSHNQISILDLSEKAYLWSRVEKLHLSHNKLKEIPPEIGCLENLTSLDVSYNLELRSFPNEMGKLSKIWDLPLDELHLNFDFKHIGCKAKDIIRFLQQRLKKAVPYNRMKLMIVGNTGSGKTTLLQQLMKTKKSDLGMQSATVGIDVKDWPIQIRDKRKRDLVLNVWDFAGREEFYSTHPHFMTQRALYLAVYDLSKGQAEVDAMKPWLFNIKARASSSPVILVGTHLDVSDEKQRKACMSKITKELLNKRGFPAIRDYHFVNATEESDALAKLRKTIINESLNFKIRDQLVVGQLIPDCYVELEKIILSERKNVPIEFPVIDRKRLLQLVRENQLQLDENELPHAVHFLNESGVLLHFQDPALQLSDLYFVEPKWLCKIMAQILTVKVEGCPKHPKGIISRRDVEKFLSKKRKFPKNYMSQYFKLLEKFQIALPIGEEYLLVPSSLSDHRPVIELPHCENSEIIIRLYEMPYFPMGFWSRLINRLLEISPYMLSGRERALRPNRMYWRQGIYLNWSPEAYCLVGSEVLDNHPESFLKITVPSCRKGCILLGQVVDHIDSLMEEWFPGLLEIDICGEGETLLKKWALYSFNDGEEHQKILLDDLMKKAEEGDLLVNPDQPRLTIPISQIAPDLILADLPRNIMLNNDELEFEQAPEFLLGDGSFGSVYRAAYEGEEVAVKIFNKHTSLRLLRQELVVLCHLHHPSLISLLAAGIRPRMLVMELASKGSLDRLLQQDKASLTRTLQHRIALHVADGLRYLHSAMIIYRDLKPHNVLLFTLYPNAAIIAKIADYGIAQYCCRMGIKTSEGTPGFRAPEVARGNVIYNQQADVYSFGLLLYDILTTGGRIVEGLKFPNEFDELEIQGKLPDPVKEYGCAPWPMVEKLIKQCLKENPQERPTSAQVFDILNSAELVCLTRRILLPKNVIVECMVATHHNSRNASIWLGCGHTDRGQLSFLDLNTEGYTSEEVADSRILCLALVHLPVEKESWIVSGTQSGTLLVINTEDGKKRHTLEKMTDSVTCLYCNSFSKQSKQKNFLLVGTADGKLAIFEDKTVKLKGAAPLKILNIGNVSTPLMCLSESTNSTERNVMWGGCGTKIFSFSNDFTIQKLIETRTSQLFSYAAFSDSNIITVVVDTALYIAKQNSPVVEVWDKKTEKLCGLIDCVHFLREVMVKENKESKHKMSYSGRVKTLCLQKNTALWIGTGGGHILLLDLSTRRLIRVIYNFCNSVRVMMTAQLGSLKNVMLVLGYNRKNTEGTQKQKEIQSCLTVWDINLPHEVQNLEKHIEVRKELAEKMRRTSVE

| activity at 1 µM (LRRK2) | Selectivity (DCLK1 activity/LRRK2 activity) (DCLK1) | activity at 1 µM (DCLK1; [1]) | melting point | LRRK2 activity (%) (LRRK2) | DCLK1 activity (%) (DCLK1; [1]) | Compound | IC50 (LRRK2) | IC50 (HCT116) | IC50 (DCLK1) | activity at 1 µM (DCLK1) |
| --- | --- | --- | --- | --- | --- | --- | --- | --- | --- | --- |
| 81% | 0.63 | 51% | 189 to 190 °C |  |  | CCOc1cc(N2CCC(C)(F)CC2)ccc1Nc1ncc2c(n1)N(C)c1ccccc1C(=O)N2CC [Compound D10, 2-((2-Ethoxy-4-(4-fluoro-4-methylpiperidin-1-yl)phenyl)amino)-5-ethyl-11-methyl-5,11-dihydro-6H-benzo[e]pyrimido[5,4-b][1,4]diazepin-6-one] |  |  |  |  |
| 51% | 0.51 | 26% | 178 to 179 °C |  |  | CCOc1cc(N2CCC(C)(O)CC2)ccc1Nc1ncc2c(n1)N(C)c1ccccc1C(=O)N2CC [Compound D9, 2-((2-Ethoxy-4-(4-hydroxy-4-methylpiperidin-1-yl)phenyl)amino)-5-ethyl-11-methyl-5,11-dihydro-6H-benzo[e]pyrimido[5,4-b][1,4]diazepin-6-one] |  |  |  |  |
| 7% | 2.14 | 15% | 189 to 190 °C |  |  | CN1C(=O)c2ccccc2N(C)c2nc(Nc3ccc(N4CCC(O)CC4)nc3)ncc21 [Compound C2, 2-((6-(4-Hydroxypiperidin-1-yl)pyridin-3-yl)amino)-5,11-dimethyl-5,11-dihydro-6H-benzo[e]pyrimido[5,4-b][1,4]diazepin-6-one] |  |  |  |  |
| 33% | 0.45 | 15% | 181 to 182 °C |  |  | COc1cc(N2CCC(C)(C)CC2)ccc1Nc1ncc2c(n1)N(C)c1ccccc1C(=O)N2C [Compound D16, 2-((4-(4,4-Dimethylpiperidin-1-yl)-2-methoxyphenyl)amino)-5,11-dimethyl-5,11-dihydro-6H-benzo[e]pyrimido[5,4-b][1,4]diazepin-6-one] |  |  |  |  |
| 72% | 0.82 | 59% | 160 to 161 °C |  |  | COc1cc(N2CCC(F)CC2)ccc1Nc1ncc2c(n1)N(C)c1ccccc1C(=O)N2C [Compound D13, 2-((4-(4-Fluoropiperidin-1-yl)-2-methoxyphenyl)amino)-5,11-dimethyl-5,11-dihydro-6H-benzo[e]pyrimido[5,4-b][1,4]diazepin-6-one] |  |  |  |  |
| 99% | 0.57 | 56% | 203 to 204 °C |  |  | CN1C(=O)c2ccccc2N(C)c2nc(NC3CCC(N4CCC(O)CC4)CC3)ncc21 (stereo not shown) [Compound C1, 2-((4-(4-Hydroxypiperidin-1-yl)cyclohexyl)amino)-5,11-dimethyl-5,11-dihydro-6H-benzo[e]pyrimido[5,4-b][1,4]diazepin-6-one] |  |  |  |  |

Continued, compound first:

| Compound | activity at 1 µM (LRRK2) | Selectivity (DCLK1 activity/LRRK2 activity) (DCLK1) | activity at 1 µM (DCLK1; [1]) | melting point | LRRK2 activity (%) (LRRK2) | DCLK1 activity (%) (DCLK1; [1]) | IC50 (LRRK2) | IC50 (HCT116) | IC50 (DCLK1) | activity at 1 µM (DCLK1) |
| --- | --- | --- | --- | --- | --- | --- | --- | --- | --- | --- |
| CCOc1cc(N2CCC(O)CC2)ccc1Nc1ncc2c(n1)N(C)c1ccc(Cl)cc1C(=O)N2C [Compound A5, 8-Chloro-2-((2-ethoxy-4-(4-hydroxypiperidin-1-yl)phenyl)amino)-5,11-dimethyl-5,11-dihydro-6H-benzo[e]pyrimido[5,4-b][1,4]diazepin-6-one] | 89% | 0.98 | 87% | 173 to 174 °C |  |  |  |  |  |  |
| CCOc1cc(N2CCC(O)CC2)ccc1Nc1ncc2c(n1)N(C)c1cc(Cl)ccc1C(=O)N2C [Compound A3, 9-Chloro-2-((2-ethoxy-4-(4-hydroxypiperidin-1-yl)phenyl)amino)-5,11-dimethyl-5,11-dihydro-6H-benzo[e]pyrimido[5,4-b][1,4]diazepin-6-one] | 88% | 0.97 | 85% | 162 to 163 °C |  |  |  |  |  |  |
| CCOc1cc(N2CCC(O)CC2)ccc1Nc1ncc2c(n1)N(C)c1c(Cl)cccc1C(=O)N2C [Compound A1, 10-Chloro-2-((2-ethoxy-4-(4-hydroxypiperidin-1-yl)phenyl)amino)-5,11-dimethyl-5,11-dihydro-6H-benzo[e]pyrimido[5,4-b][1,4]diazepin-6-one] | 8% | 3.13 | 25% | 130 to 131 °C |  |  |  |  |  |  |
| CCOc1cc(N2CCC(O)CC2)ccc1Nc1ncc2c(n1)N(C)c1ccc(C)cc1C(=O)N2C [Compound A8, 2-((2-Ethoxy-4-(4-hydroxypiperidin-1-yl)phenyl)amino)-5,8,11-trimethyl-5,11-dihydro-6H-benzo[e]pyrimido[5,4-b][1,4]diazepin-6-one] | 93% | 1.10 | 102% | 170 to 171 °C |  |  |  |  |  |  |
| CCOc1cc(N2CCC(O)CC2)ccc1Nc1ncc2c(n1)N(C)c1cc(C)ccc1C(=O)N2C [Compound A4, 2-((2-Ethoxy-4-(4-hydroxypiperidin-1-yl)phenyl)amino)-5,9,11-trimethyl-5,11-dihydro-6H-benzo[e]pyrimido[5,4-b][1,4]diazepin-6-one] | 83% | 1.07 | 89% | 171 to 172 °C |  |  |  |  |  |  |
| CCOc1cc(N2CCC(O)CC2)ccc1Nc1ncc2c(n1)N(C)c1ccccc1C(=O)N2C [XMD8-92, reference compound] | 18% |  |  |  |  |  | 219 nM | 16200 nM | 161 nM | 14% |
| CCOc1cc(N2CCC(O)CC2)ccc1Nc1ncc2c(n1)N(C)c1c(C)cccc1C(=O)N2C [Compound A2, 2-((2-Ethoxy-4-(4-hydroxypiperidin-1-yl)phenyl)amino)-5,10,11-trimethyl-5,11-dihydro-6H-benzo[e]pyrimido[5,4-b][1,4]diazepin-6-one] | 100% | 1.03 | 103% | 177 to 178 °C |  |  |  |  |  |  |
| CCOc1cc(N2CCC(O)CC2)ccc1Nc1ncc2c(n1)N(C)c1ccc(C(F)(F)F)cc1C(=O)N2C [Compound A7, 2-((2-Ethoxy-4-(4-hydroxypiperidin-1-yl)phenyl)amino)-5,11-dimethyl-8-(trifluoromethyl)-5,11-dihydro-6H-benzo[e]pyrimido[5,4-b][1,4]diazepin-6-one] | 109% | 1.00 | 109% | 119 to 120 °C |  |  |  |  |  |  |
| CCOc1cc(N2CCC(O)CC2)ccc1Nc1ncc2c(n1)N(C)c1cccc(C)c1C(=O)N2C [Compound A10, 2-((2-Ethoxy-4-(4-hydroxypiperidin-1-yl)phenyl)amino)-5,7,11-trimethyl-5,11-dihydro-6H-benzo[e]pyrimido[5,4-b][1,4]diazepin-6-one] | 98% | 0.98 | 96% | 184 to 185 °C |  |  |  |  |  |  |
| 2-((2-Ethoxy-4-(4-hydroxypiperidin-1-yl)phenyl)amino)-5-methyl-5,11-dihydro-6H-benzo[e]pyrimido[5,4-b][1,4]diazepin-6-one [Compound B2] |  | 0.82 |  |  | 72% | 59% |  |  |  |  |
| 2-((2-Ethoxy-4-(4-hydroxypiperidin-1-yl)phenyl)amino)-11-methyl-5,11-dihydro-6H-benzo[e]pyrimido[5,4-b][1,4]diazepin-6-one [Compound B1] |  | 1.34 |  |  | 76% | 102% |  |  |  |  |
